Experimental data from patent US20260014219A1, “COMPOSITION FOR INHIBITING REDUCTION OF TESTOSTERONE AND/OR DIHYDROTESTOSTERONE” (priority 2019, published 2026).

Key:
testicular cells = assay: Test Example 2: testosterone/dihydrotestosterone production in primary testicular cells; type: cell-based, rat; details: 0.5 mM, 1 h pretreatment, then LH or dibutyryl cAMP, 90 min
Experimental: Dispersed testicular cells were prepared from the testis in mature rats. The testicular cells isolated were cultured for 18 hours in DMEM/Ham's F-12 medium (manufactured by FUJIFILM Wako Pure Chemical Corporation) for culture of testicular stromal cells, Leydig cell. Cells were pretreated with the hot water extract of Cordyceps militaris derived from Samia cynthia ricini (diluted to 1:500), or cordycepin known as one of the physiological activity substances of a vegetative wasp (0.5 mM) for 1 hour and then stimulated with a luteinizing hormone (LH: 10 and 100 ng/mL) or dibutyryl cAMP (0.1 and 0.5 mM). Ninety minutes after the stimulation, the media was collected and the content of testosterone was quantified. In order to confirm the reproducibility, the results of the reexamination performed with the same test content are shown in FIG. 13. In the reexamnination, three independent experiments were performed, and in addition to testosterone, dihydrotestosterone was also quantified.

castrated rat = assay: Test Example 1-1: male menopausal model rat (castrated, testosterone propionate-supplemented); type: in vivo
Experimental: As the human menopause model, rats were castrated (orchiectomy). An eight-week-old male rat was subjected to orchiectomy under isoflurane anesthesia, and the castrated rat was orally administered the hot water extract of Cordyceps militaris derived from Samia cynthia ricini (RK: 20 mg/0.2 mL distilled water/rat: average body weight at the start of administration: 317 g) together with testosterone propionate (TP: 1 mg/kg, every other day administration) continuously for 12 days. Animals were sacrificed the day after the final treatment, and then the serum, testes, prostate, and seminal vesicle glands were isolated. Some animals to which 0.2 mL distilled water was administered was used as control group.
After the blood collection, the concentrations of testosterone and dihydrotestosterone in the serum were evaluated by the following measurement kit.
The results of the blood testosterone values measured by an EIA kit (manufactured by Cayman) and the results of blood dihydrotestosterone values measured by an ELISA kit (manufactured by Abnova) are shown in FIGS. 1 and 2, respectively.
After the autopsy, changes in the weight of the prostate and the seminal vesicle were evaluated. The change in the weight of the prostate is shown in FIG. 5, and change in the weight of the seminal vesicle is shown in FIG. 6.

[1] = test system: prostatic hypertrophy model rat; assay: Test Example 1-2: prostatic hypertrophy model rat (long-term excessive TP); type: in vivo, Wistar rat; details: TP 3 mg/kg, 1 month
Experimental: In a rat model of menopause Test Example 1-1, since the increase in the prostatic weight by testosterone propionate (TP) was inhibited by the hot water extract of Cordyceps militaris derived from Samia cynthia ricini (RK), it was assumed that RK has inhibitory effects on prostatic hypertrophy. The effect of long-term administration of RK was, therefore, examined using a rat model of prostatic hypertrophy in which an excessive amount of TP is administered to mature rats for a long period of time.
An eight-week-old male Wistar rat was orally administered RK (10 mg/0.2 mL distilled water/rat or 20 mg/0.2 mL distilled water/rat: average body weight at the start of administration: 268 g) together with 3 mg/kg of TP continuously for 1 month. Animals were sacrificed the day after the final treatment, and then the serum, testes, prostate, and seminal vesicle glands were isolated. Some animals to which 0.2 mL distilled water was administered was used as control group.
After the blood collection, the serum levels of testosterone and dihydrotestosterone value were evaluated by the following measurement kit.
The results of the blood testosterone values measured by EIA kit (manufactured by Cayman) and the results of dihydrotestosterone values measured by Elisa kit (manufactured by Abnova) are shown in FIGS. 8 and 9, respectively.
After the necropsy, changes in prostate weight and body weight were evaluated.

| Structure (SMILES) | stimulatory action on testosterone/dihydrotestosterone levels (testicular cells) | body weight (castrated rat; TP administered to castrated animals, FIG. 7) | weight of the prostate (castrated rat; TP group (1 mg/kg every other day) vs castrated, FIG. 5) | weight of the seminal vesicle (castrated rat; TP group (1 mg/kg every other day) vs castrated, FIG. 6) | serum levels of testosterone ([1]; FIG. 8) | serum levels of dihydrotestosterone ([1]; FIG. 9) | prostatic weight ([1]; FIG. 10) |
| --- | --- | --- | --- | --- | --- | --- | --- |
| Nc1ncnc2c1ncn2[C@@H]1O[C@H](CO)C[C@H]1O [Cordycepin, cordycepin] | No stimulatory action | – | – | – | – | – | – |
| CCC(=O)O[C@H]1CC[C@H]2[C@@H]3CCC4=CC(=O)CC[C@]4(C)[C@H]3CC[C@]12C [testosterone propionate] | – | tended to increase | increased | increased | increase | increase | increased |
